Literature values in PMC11785675, “Phase Ib study of the oral PI3Kδ inhibitor linperlisib in patients with advanced solid tumors” (International Journal of Clinical Oncology, 2024).

Key:
[1] = tested on: thymic epithelial tumors cells carrying mutant PI3K subunits; design: method as in PMID 27117832; details: in vitro; cited from earlier work
[2] = tested on: HCC cells; design: method as in PMID 24919154, PMID 33093155; details: cited from earlier work
[3] = tested on: breast cancer; design: method as in PMID 24919154, PMID 33093155; details: cited from earlier work
[4] = tested on: advanced or refractory solid tumors; design: method as in PMID 27915408; details: 10 Japanese patients, cited from earlier work
[5] = tested on: advanced solid tumors; design: method as in PMID 27672108; details: 48 patients with advanced solid tumors, cited from earlier work
[6] = tested on: patients; design: method as in PMID 31619463; details: cited from earlier work
[7] = tested on: patients; design: method as in PMID 27672108; details: cited from earlier work
[8] = comparison drugs; no reference given; cited from earlier work
[9] = tested on: patients; details: 150 mg twice daily; 12 patients; cited from earlier work
[10] = tested on: advanced solid tumors; design: method as in PMID 35288468; details: parsaclisib monotherapy; five patients; cited from earlier work

CS(=O)(=O)N1CCN(Cc2cc3nc(-c4cccc5[nH]ncc45)nc(N4CCOCC4)c3s2)CC1 [GDC-0941]
Antitumor activity [1]: in vitro antitumor activity

Fc1ccc2[nH]ccc2c1-c1nc(N2CCOCC2)c2sc(CN3CCN(CC4CC4)CC3)cc2n1 [PI-3065]
Apoptosis of HCC cells [2]: directly induce apoptosis of HCC cells | Growth and metastasis of breast cancer [3]: significantly inhibit growth and metastasis of breast cancer

COc1c(OCCCN2CCOCC2)ccc2c1N=C(NC(=O)c1cnc(N)nc1)N1CCN=C21 [copanlisib]
3-month PFS rate ([4]; 95% CI 1–40): 12% | Median PFS ([4]; 95% CI 21–82): 52 days | CR or PR [4]: no patients achieved a CR or PR | DCR [4]: 40.0% | Patients achieving stable disease [5]: 15 patients | Patients achieving CR ([5]; endometrial carcinoma with PIK3CA and PTEN mutations): one | Patients with PR ([5]; metastatic breast cancer): two | TEAE fatigue, all grade [6]: 46.0% | TEAE hyperglycemia, grade 3 [6]: 22.2% | TEAE hyperglycemia, grade 4 [6]: 1.6% | TEAE hypertension, all grade [6]: 41.3% | TEAE hypertension, grade 3 [6]: 30.2% | TEAE hypertension, grade 4 [6]: 0 | TEAE hypophosphatemia, grade 3 [6]: 11.1% | TEAE hypophosphatemia, grade 4 [6]: 0 | TEAE lymphocyte count decreased, grade 3 [6]: 7.9% | TEAE lymphocyte count decreased, grade 4 [6]: 4.8% | Patients with AEs possibly related to copanlisib ([7]; 49 patients): 86% | Drug-related grade 3 AE hyperglycemia [7]: 30% | Drug-related grade 3 AE hypertension [7]: 14% | Drug-related grade 3 AE rash [7]: 7% | TRAE hyperglycemia, all grades [7]: 63% | TRAE hypertension, all grades [7]: 21% | TRAE nausea, all grades [7]: 37%

C[C@H](Nc1ncnc2[nH]cnc12)c1cc2cccc(Cl)c2c(=O)n1-c1ccccc1 [duvelisib, reference compound]
Route of excretion [8]: predominantly excreted via the intestines

CC[C@H](Nc1ncnc2[nH]cnc12)c1nc2cccc(F)c2c(=O)n1-c1ccccc1 [idelalisib]
Grade ≥ 3 TEAE increased ALT [9]: 25% | Grade ≥ 3 TEAE increased AST [9]: 41.7% | Grade ≥ 3 TEAE maculopapular rash [9]: 25% | TEAE increased ALT [9]: 33.3% | TEAE increased AST [9]: 41.7% | TEAE maculopapular rash [9]: 25% | TEAE pyrexia [9]: 50%

CCOc1c([C@H](C)n2nc(C)c3c(N)ncnc32)cc(Cl)c(F)c1[C@@H]1CNC(=O)C1 [parsaclisib]
CR or PR [10]: none achieved a CR or PR
